Experimental data from publication doi:10.1101/2023.05.15.540887, “Comparative analysis of drug-like EP300/CREBBP acetyltransferase inhibitors” (bioRxiv, 2023).

Tests used:
[1] = test system: histone H3 acetylation in MCF-10A cells (PANK4 KO+WT, KO+EV); test: Western blot of H3K18Ac and H3K23Ac in MCF-10A PANK4 KO+WT and KO+EV cells; format: cell-based, human; details: 3 h, 1 at micromolar and 3 at nanomolar concentrations
Description: Recently, we reported the discovery of a phosphorylation-dependent signaling cascade that can upregulate CoA biosynthesis in human cells by inhibiting the activity of PANK4, a negative regulator of this pathway (Fig. 4a).[34] This occurs via PANK4’s ability to reverse the rate-limiting step in CoA production, which is phosphorylation of pantothenate (vitamin B5) by PANK1–3.[35] […] Considering how to resolve these mechanisms, we wondered if this may be an area where knowledge of the comparative pharmacology of EP300/CREBBP inhibitors could be usefully leveraged. Specifically, we hypothesized that if PANK4 inactivation (knockout; KO) led to a resistance mechanism dependent on EP300/CREBBP active site occupancy (e.g. competitive binding), then the differential potency of 1 and 3 would be preserved – albeit over a shifted concentration range – in the resistant PANK4 KO cell line (Fig. 4b). […] To correlate these observations with the effect of the compounds on cellular acetyltransferase activity, we monitored histone H3 acetylation at an EP300/CREBBP-dependent site (H3K18Ac) and EP300/CREBBP-independent site (H3K23Ac). […]
Histone samples were quantified using the Precision Red Protein Assay (Cytoskeleton #ADV02). […]

SNB-19 = test: NCI-60 growth inhibition (sulforhodamine B); format: cell-based, human; details: SNB-19 (CNS Cancer), negative log of Molar conc., LCONC -8
CAKI-1 = test: NCI-60 growth inhibition (sulforhodamine B); format: cell-based; details: Homo sapiens, CAKI-1, Renal Cancer, negative log of Molar value, LCONC -8, EXPID 2301NS84

Q: Which “effect on H3K18Ac, PANK4 KO+EV versus KO+WT” value [1] does the source give for `C[C@H](CN[C@@H](C(=O)Nc1ccc(-c2cnn(C)c2)cn1)c1ccccc1)c1ccc(C#N)cc1` [CPI-1612] here?
A: PANK4 KO lessening the effects

Q: And the GI50 (SNB-19; Homo sapiens, read-out: GI50 NLOGVALUE (converted))?
A: 0.0955 µM

Q: And the IC50 (SNB-19; Homo sapiens, read-out: IC50 NLOGVALUE)?
A: > 100 µM

Q: What about the CC50 (SNB-19; Homo sapiens, read-out: LC50 NLOGVALUE) of the same compound?
A: > 100 µM

Q: What about the “TGI NLOGVALUE” (SNB-19) of the same compound?
A: 4

Q: What about the GI50 (CAKI-1; read-out: GI50 NLOGVALUE) of the same compound?
A: < 0.01 µM

Q: And the CC50 (CAKI-1; read-out: LC50 NLOGVALUE)?
A: > 100 µM
